Like-named read-outs stand apart in the source and are kept apart here. Marks after values point to notes of the source that are not given here.
How the values were obtained:
[1] = tested on: Human breast cancer MDA-MB-436 cells; experiment: Cytotoxic action on MDA-MB-436 cells (WST-8, 96 hr); type: cell-based
Protocol: (§1) The cytotoxic action of the compound of the present invention against cancer cells that acquired resistance to conventional BRD4 protein degradation inducing agents was evaluated in vitro. In this experiment, ARV-771 (Proc Natl Acad Sci USA. volume 113, pages 7124-7129 (28 Jun. 2016)) and MZ1 (ACS Chem Biol. Volume 10, pages 1770-1777 (21 Aug. 2015)), in which a ligand for VHL and BRD4 protein inhibitor are linked, were used as a conventional BRD4 protein degradation inducing agent serving as a comparison control. Human breast cancer MDA-MB-436 cells and MDA-MB-436 cells that acquired resistance to conventional BRD4 protein degradation inducing agents (MDA-MB-436 w/o2 cells) were suspended in 10% FBS/RPMI1640, seeded in a 96 well plate and cultured at 5% CO2, 37° C. overnight. A test compound dissolved in DMSO was diluted with 10% FBS/RPMI1640 and added and the cells were further cultured for 96 hr. After culturing, the viable cell number was measured using a cell number measurement WST-8 kit (Kishida Chemical Co., Ltd.). As a control, the measurement was performed under conditions free of the test compound. The cytotoxic activity of the compound of the present invention against each cell is shown in IC50 value in Table 4. The IC50 value is a concentration of the compound showing 50% cell survival rate when the cell survival rate thereof under compound untreated condition is 100%. It was calculated from the straight line connecting the cell survival rate at two points enclosing the 50% cell survival rate and the compound concentration. In addition, the tolerance (fold) was calculated by dividing the IC50 value in MDA-MB-436 w/o2 cells by the IC50 value in MDA-MB-436 cells.

MDA-MB-436 w/o2 cells = experiment: Cytotoxic action on MDA-MB-436 w/o2 cells that acquired resistance to conventional BRD4 degraders (WST-8, 96 hr); type: cell-based, human; conditions: for resistance: IC50 in MDA-MB-436 w/o2 cells divided by IC50 in MDA-MB-436 cells; for IC50: MDA-MB-436 w/o2 cells, 96 hr; for resistance of MDA-MB-436 w/o2 cells to the substance (in words): MDA-MB-436 w/o2 versus MDA-MB-436 cells
Protocol: as §1

BRD4 protein [2] = target: T1, BRD4 protein (Homo sapiens (Human), UniProt O60885); experiment: BRD4 protein degradation inducing action in MDA-MB-436 cells (Western blot, 6 hr); type: cell-based; conditions: MDA-MB-436 cell
Protocol: (§2) The BRD4 protein degradation inducing action of the compound of the present invention on the cancer cells that acquired resistance to conventional BRD4 protein degradation inducing agents was evaluated in vitro. In this experiment, ARV-771 and MZ1, in which a ligand for VHL and BRD4 protein inhibitor are linked, were used as a conventional BRD4 protein degradation inducing agent serving as a comparison control. Human breast cancer MDA-MB-436 cells and MDA-MB-436 cells that acquired resistance to conventional BRD4 protein degradation inducing agents (MDA-MB-436 w/o2 cells) were suspended in 10% FBS/RPMI1640, seeded in a 6 well plate and cultured at 5% CO2, 37° C. overnight. A test compound dissolved in DMSO was diluted with 10% FBS/RPMI1640 and added and the cells were further cultured for 6 hr. After culturing, the cells were lysed in a solubilizing solution (10 mM Tris-HCl, pH 7.4, 0.1% NP-40, 0.1% sodium deoxycholate, 0.1% SDS, 0.15 M NaCl, 1 mM EDTA, 10 μg/mL aprotinin). The solution was electrophoresed and proteins in acrylamide gel were transferred to Immobilon PVDF membrane using a semi-dry transfer device. […] After immersing in a secondary antibody solution for 1 hr, the object protein on the membrane was detected using ECL Prime Western Blotting Detection System or ECL Select Western Blotting Detection System (GE Healthcare).

BRD4 protein [3] = target: T1, BRD4 protein; experiment: BRD4 protein degradation inducing action in MDA-MB-436 w/o2 cells (Western blot, 6 hr); type: cell-based; conditions: MDA-MB-436 w/o2 cell
Protocol: as §2

[4] = tested on: human prostate cancer LNCaP cells; experiment: Cytotoxic action on LNCaP cells (WST-8, 96 hr); type: cell-based; conditions: 96 hr culture
Outline: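 WST-8 viable-cell readout after 96 hr compound exposure in 10% FBS/RPMI1640, 37° C, 5% CO2; cells pre-cultured overnight before dosing. Survival normalised to compound-free control (100%); IC50 by straight-line interpolation between the two concentrations flanking 50% survival.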

BRD4 protein [5] = target: T1, BRD4 protein; experiment: BRD4 protein degradation inducing action in LNCaP cells (immunofluorescence, 6 hr); type: cell-based; conditions: anti-BRD4 fluorescence intensity
Outline: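 LNCaP cells in 10% FBS/RPMI1640 exposed to compound for 6 hr, fixed, permeabilized and immunostained for BRD4 with Alexa Fluor 546 secondary; fluorescence (ex 560, em 572 nm) read by imaging. DC50 = concentration giving 50% of untreated signal, interpolated linearly between the two bracketing points.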

[6] = tested on: human acute myeloid leukemia MV-4-11 cell transplanted mouse; experiment: Antitumor effect of 1 week intermittent administration to MV-4-11 cell transplanted mouse (tail vein, days 1 and 8); type: in vivo; conditions: tumor weight on day 15
Protocol: The in vivo antitumor effect of the compound of the present invention was studied using human acute myeloid leukemia MV-4-11 cell transplanted mouse. MV-4-11 cells were subcutaneously transplanted into the inguinal region of male, 6-week-old BALB/c nude mouse (5×10^6 cells/mouse). The compound of the present invention was administered into the tail vein on days 1 and 8 from the time point when the assumed tumor volume determined from ½ab^2 (a is major axis and b is minor axis of tumor) reached about 200 mm^3 (day 1). The control group was administered with a solvent, 10% Kolliphor ELP/5% ethanol/85% saline solution. On day 15, the tumor was isolated, the weight was measured, and the tumor growth inhibitory rate IR (%) was calculated by the following formula. tumor growth inhibitory rate IR (%)={1−(average tumor weight of administration group/average tumor weight of nonadministration control group)}×100(%)

| Structure (SMILES) | degradation of BRD4 protein (Western blot, FIG. 1) (BRD4 protein [2]) | degradation of BRD4 protein (Western blot, FIG. 1) (BRD4 protein [3]) | DC50 (BRD4 protein [5]) [nM] | IC50 [1] [nM] | resistance (MDA-MB-436 w/o2 cells) [fold] | IC50 (MDA-MB-436 w/o2 cells) [nM] | resistance of MDA-MB-436 w/o2 cells to the substance (in words) (MDA-MB-436 w/o2 cells) | IC50 [4] [nM] | IC50 ([1]; Homo sapiens) [nM] | IC50 (MDA-MB-436 w/o2 cells; Homo sapiens) [nM] | tumor growth inhibitory rate ([6]; 4 mg/kg/day) | tumor growth inhibitory rate ([6]; 12.5 mg/kg/day) |
| --- | --- | --- | --- | --- | --- | --- | --- | --- | --- | --- | --- | --- |
| COC(=O)C[C@@H]1N=C(c2ccc(-c3ccc(C(=O)NCc4ccc(S(=O)(=O)Nc5ccc(C)c6c(C#N)c[nH]c56)cc4)cc3Cl)cc2)c2c(sc(C)c2C)-n2c(C)nnc21 [Example 47, methyl [(6S)-4-{2′-chloro-4′-[({4-[(3-cyano-4-methyl-1H-indol-7-yl)sulfamoyl]phenyl}methyl)carbamoyl][1,1′-biphenyl]-4-yl}-2,3,9-trimethyl-6H-thieno[3,2-f][1,2,4]triazolo[4,3-a][1,4]diazepin-6-yl]acetate] |  |  | 0.3 |  |  |  |  | 0.46 |  |  | 32* % | 68** % |
| COC(=O)C[C@@H]1N=C(c2ccc(-c3ccc(C(=O)NCc4ccc(S(=O)(=O)Nc5ccc(C)c6c(C#N)c[nH]c56)cc4)nc3)cc2)c2c(sc(C)c2C)-n2c(C)nnc21 [Example 53, methyl [(6S)-4-(4-{6-[({4-[(3-cyano-4-methyl-1H-indol-7-yl)sulfamoyl]phenyl}methyl)carbamoyl]pyridin-3-yl}phenyl)-2,3,9-trimethyl-6H-thieno[3,2-f][1,2,4]triazolo[4,3-a][1,4]diazepin-6-yl]acetate] |  |  | 0.078 |  | 1.5 |  |  | 0.16 | 0.21 | 0.32 |  |  |
| COC(=O)C[C@@H]1N=C(c2ccc(-c3ccc(C(=O)NCc4ccc(S(=O)(=O)Nc5ccc(C)c6c(C#N)c[nH]c56)cc4)c(F)c3F)cc2)c2c(sc(C)c2C)-n2c(C)nnc21 [Example 74, methyl [(6S)-4-{4′-[({4-[(3-cyano-4-methyl-1H-indol-7-yl)sulfamoyl]phenyl}methyl)carbamoyl]-2′,3′-difluoro[1,1′-biphenyl]-4-yl}-2,3,9-trimethyl-6H-thieno[3,2-f][1,2,4]triazolo[4,3-a][1,4]diazepin-6-yl]acetate] |  |  | 0.092 |  |  |  |  | 0.21 |  |  | 43** % | 94** % |
| CCc1ccc(NS(=O)(=O)c2ccc([C@@H](C)NC(=O)c3cnc(-c4ccc(C5=N[C@@H](CC(=O)OC)c6nnc(C)n6-c6sc(C)c(C)c65)cc4)cn3)cc2)c2[nH]cc(C#N)c12 [Example 106, methyl {(6S)-4-[4-(5-{[(1R)-1-{4-[(3-cyano-4-ethyl-1H-indol-7-yl)sulfamoyl]phenyl}ethyl]carbamoyl}pyrazin-2-yl)phenyl]-2,3,9-trimethyl-6H-thieno[3,2-f][1,2,4]triazolo[4,3-a][1,4]diazepin-6-yl}acetate] |  |  | 0.059 |  |  |  |  | 0.079 |  |  | 96** % | 98** % |
| Cc1ncsc1-c1ccc(CNC(=O)[C@@H]2C[C@@H](O)CN2C(=O)[C@@H](NC(=O)COCCOCCOCCNC(=O)C[C@@H]2N=C(c3ccc(Cl)cc3)c3c(sc(C)c3C)-n3c(C)nnc32)C(C)(C)C)cc1 [MZ1, reference compound] | induced degradation of BRD4 protein | did not induce degradation |  | 1900 | >26 | > 50000 | showed resistance |  |  |  |  |  |

More lines, main results first:

| degradation of BRD4 protein (Western blot, FIG. 1) (BRD4 protein [2]) | degradation of BRD4 protein (Western blot, FIG. 1) (BRD4 protein [3]) | DC50 (BRD4 protein [5]) [nM] | Structure (SMILES) | IC50 [1] [nM] | resistance (MDA-MB-436 w/o2 cells) [fold] | IC50 (MDA-MB-436 w/o2 cells) [nM] | resistance of MDA-MB-436 w/o2 cells to the substance (in words) (MDA-MB-436 w/o2 cells) | IC50 [4] [nM] | IC50 ([1]; Homo sapiens) [nM] | IC50 (MDA-MB-436 w/o2 cells; Homo sapiens) [nM] | tumor growth inhibitory rate ([6]; 4 mg/kg/day) | tumor growth inhibitory rate ([6]; 12.5 mg/kg/day) |
| --- | --- | --- | --- | --- | --- | --- | --- | --- | --- | --- | --- | --- |
| induced degradation of BRD4 protein | did not induce degradation |  | Cc1ncsc1-c1ccc([C@H](C)NC(=O)[C@@H]2C[C@@H](O)CN2C(=O)[C@@H](NC(=O)COCCCOCCNC(=O)C[C@@H]2N=C(c3ccc(Cl)cc3)c3c(sc(C)c3C)-n3c(C)nnc32)C(C)(C)C)cc1 [ARV-771, reference compound] | 5.6 | 150 | 860 | showed resistance |  |  |  |  |  |
|  |  | 0.12 | CCc1ccc(NS(=O)(=O)c2ccc(CNC(=O)c3ccc(-c4ccc(C5=N[C@@H](CC(=O)OC)c6nnc(C)n6-c6sc(C)c(C)c65)cc4)cc3)cc2)c2[nH]cc(C#N)c12 [Example 43, methyl [(6S)-4-{4′-[({4-[(3-cyano-4-ethyl-1H-indol-7-yl)sulfamoyl]phenyl}methyl)carbamoyl][1,1′-biphenyl]-4-yl}-2,3,9-trimethyl-6H-thieno[3,2-f][1,2,4]triazolo[4,3-a][1,4]diazepin-6-yl]acetate] |  | 1.3 |  |  | 0.23 | 0.34 | 0.42 |  |  |
|  |  | 0.11 | COC(=O)C[C@@H]1N=C(c2ccc(-c3ccc(C(=O)NCCc4ccc(S(=O)(=O)Nc5ccc(C)c6c(C#N)c[nH]c56)cc4)cc3F)cc2)c2c(sc(C)c2C)-n2c(C)nnc21 [Example 46, methyl [(6S)-4-{4′-[(2-{4-[(3-cyano-4-methyl-1H-indol-7-yl)sulfamoyl]phenyl}ethyl)carbamoyl]-2′-fluoro[1,1′-biphenyl]-4-yl}-2,3,9-trimethyl-6H-thieno[3,2-f][1,2,4]triazolo[4,3-a][1,4]diazepin-6-yl]acetate] |  | 1.3 |  |  | 0.19 | 0.2 | 0.26 |  |  |
|  |  | 0.18 | COC(=O)C[C@@H]1N=C(c2ccc(-c3ccc(C(=O)NCc4ccc(S(=O)(=O)Nc5ccc(C)c6c(C#N)c[nH]c56)cc4)nn3)cc2)c2c(sc(C)c2C)-n2c(C)nnc21 [Example Compound 149, methyl [(6S)-4-(4-{6-[({4-[(3-cyano-4-methyl-1H-indol-7-yl)sulfamoyl]phenyl}methyl)carbamoyl]pyridazin-3-yl}phenyl)-2,3,9-trimethyl-6H-thieno[3,2-f][1,2,4]triazolo[4,3-a][1,4]diazepin-6-yl]acetate] |  |  |  |  | 0.54 |  |  |  |  |
|  |  | 0.12 | Cc1sc2c(c1C)C(c1ccc(-c3ccc(C(=O)NCc4ccc(S(=O)(=O)Nc5ccc(C)c6c(C#N)c[nH]c56)cc4)nn3)cc1)=N[C@@H](CC(=O)OC(C)(C)C)c1nnc(C)n1-2 [Example Compound 150, t-butyl [(6S)-4-(4-{6-[({4-[(3-cyano-4-methyl-1H-indol-7-yl)sulfamoyl]phenyl}methyl)carbamoyl]pyridazin-3-yl}phenyl)-2,3,9-trimethyl-6H-thieno[3,2-f][1,2,4]triazolo[4,3-a][1,4]diazepin-6-yl]acetate] |  |  |  |  | 0.43 |  |  |  |  |
